Values belong to the compound of their own block, whether it stands above or below them.
Columns and labels:
FGFR1 = FGFR1 (Homo sapiens, UniProt P11362); assay: Thermal shift assay (TSA) of FGFR1/FGF2 complex, FGFR1 melting peak; type: binding; set-up: made in house; host or cells: Escherichia coli BL21 (DE3) Star; details: FGF2/FGFR1 complex; for ΔTm at 100 µM: 100 μM compound; for ΔTm at 10 µM: 10 μM compound; for ΔTm at 2 µM: 2 μM compound; for ΔTm at 25 µM: 25 μM compound
Description: (§1) TSA was utilized to biophysically characterize the recombinant human FGFR1/FGF2 complex in the presence or absence of compounds. The assay functions by protein denaturation over a temperature gradient. During protein unfolding, exposed hydrophobic regions bind a dye and fluoresce due to solvent relaxation effects. Changes in the melting temperature of the protein complex in the presence of each compound were monitored and compounds were screened/ranked using this method.
Cell pellets were thawed and resuspend in 100 mL of FGFR1 Lysis Buffer per 9 g of pellet (20 mM Tris-HCl pH 8.0, 500 mM NaCl, 1 mM dithiothreitol) by stirring at 4° C. for 1 hour. Cells were lysed in 3 cycles on/off for 3 minutes each at 4° C. via sonication followed by centrifugation for 30 minutes at 16,000 RPM in rotor F20 at 4° C., after which the supernatant was discarded. This process was then repeated twice. The pellets were resuspended in 150 mL FGFR1 solubilization buffer (8 M urea, 20 mM Tris-HCL pH 8.0, 150 mM NaCl, 1 mM dithiothreitol) by stirring for 1 hour at 4° C., and the solution was subjected to centrifugation for 30 minutes at 16,000 RPM in rotor F20 at 4° C. The pellets were discarded, and the supernatant was filtered through a […] polyethersylfone (PES) filter. After filtration, the supernatant was added dropwise to 1 L FGFR1 refolding buffer (20 mM Tris-HCl pH 8.0, 150 mM NaCl, 0.5 M L-arginine, 25 mM MgCl2) using a glass column. Protein was concentrated by tangential flow from 1 L to 100 mL and dialyzed against 1 L of FGFR1 Dialysis Buffer (20 mM Tris-HCl pH 8.0, 150 mM NaCl, 25 mM MgCl2) for 2 hours at 4° C., and the dialysis step was repeated with fresh buffer for an additional 2 hours at 4° C. The material thus obtained was then centrifuged at 4000 RPM in Eppendorf tabletop centrifuge for 5 minutes and loaded onto 2×5 mL heparin columns. The columns were washed extensively (20 CV) using FGFR1 Heparin Buffer A (20 mM Tris-HCl pH 8.0, 150 mM NaCl, 25 mM MgCl2) and then eluted using FGFR1 Heparin Buffer B (20 mM Tris-HCl pH 8.0, 1.5 M NaCl, 25 mM MgCl2). A large peak was recovered that was >95% pure by SDS-PAGE analysis gel (Expected Mw: 25 KDa). The protein was collected and diluted in 20 mM Tris-HCl pH 8.0, 25 mM MgCl2 buffer in order to reach a NaCl concentration of 150 mM. The FGFR1 thus obtained was concentrated and stored at −80° C.
(§2) Thawed aliquots of purified FGF2 (1.0 mg/mL) and FGFR1 (1.6 mg/mL) proteins were mixed in a 1:1 molar ratio (64 μM: 64 μM) on ice for 30 min at 4° C. and plated prior to the thermal shift assay (TSA). Complex formation was verified by loading the complexed material on a size exclusion column (superdex 300GL S200) and observing the monodisperse peak corresponding to the FGF2/FGFR1 complex (˜40 kDa). Compounds of the invention were screened in dose response format (0-100 μM) with the FGF2/FGFR1 complex in triplicates. FGF2/FGFR1/compound complexes were mixed in a 1000:1 ratio with Sypro Orange dye (Sigma-Aldrich). The samples were processed using a Bio-Rad CFX C96 Touch quantitative polymerase chain reaction and run using the FRET assay settings with a heating ramp of 0.3° C./s cycling from 4 to 100° C. Data analysis was performed using the Bio-Rad CFX Manager Software (version 3.1, Bio-Rad) and changes in the melting temperature (Tm) of the complex in the presence of each compound were monitored. The results are shown in Tables 2 and 3 below and also in FIG. 1 (for Compound 2).

FGF2 = target: T1, FGF2 (Homo sapiens, UniProt P09038); assay: Thermal shift assay (TSA) of FGFR1/FGF2 complex, FGF2 melting peak; type: binding; details: for ΔTm at 100 µM: 100 μM compound; for ΔTm at 10 µM: 10 μM compound; for ΔTm at 2 µM: 2 μM compound; for ΔTm at 25 µM: 25 μM compound
T1 construct: made in house; host or cells: Escherichia coli BL21 (DE3) Star
T1 sequence (P09038 156-288 limits assumed): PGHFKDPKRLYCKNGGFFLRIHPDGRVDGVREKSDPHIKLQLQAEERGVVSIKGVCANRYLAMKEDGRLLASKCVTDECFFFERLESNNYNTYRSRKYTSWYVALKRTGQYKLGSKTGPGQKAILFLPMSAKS
T1 sequence (P11362 142-365 partner limits assumed): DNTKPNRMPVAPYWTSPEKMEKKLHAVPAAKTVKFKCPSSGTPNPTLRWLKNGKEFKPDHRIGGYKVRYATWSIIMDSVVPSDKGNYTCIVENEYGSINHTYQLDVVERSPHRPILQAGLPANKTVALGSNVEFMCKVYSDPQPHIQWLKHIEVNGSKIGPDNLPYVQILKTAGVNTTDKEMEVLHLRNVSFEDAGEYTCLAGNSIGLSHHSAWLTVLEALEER
Description: as §1
One Shot BL21 (DE3) Star Escherichia coli competent cells (Thermo Fisher) were transformed with a relevant FGF2 plasmid and inoculated onto Ampicillin Luria Broth/Agar plates. Two hundred milliliter portions of Terrific Broth starter cultures were used to inoculate 9 L cultures with ampicillin at a concentration of 100 μg/mL. Cultures were grown to an O.D.600 near 1.0 at 37° C., and induced with IPTG overnight at 18° C. The cells were harvested at 7000 RPM in rotor 6000 for 5 min at 4° C. and stored at −80° C. Bacterial pellets were resuspended in 25 mM Hepes-NaOH, pH 7.5, 250 mM NaCl, and the cells were lysed in 3 cycles on/off for 3 minutes each at 4° C. via sonication. After centrifugation for 30 minutes at 16,000 RPM at 4° C., the isolated pellets were discarded, and the supernatant was filtered supernatant through a […] PES filter using 100 mL superloop. The lysate was purified over a 5 mL S column by washing the column with Lysis buffer for 5 CV then eluting using gradient from 250 mM to 1 M NaCl over 20 CV. The fractions containing FGF2 were identified via SDS-PAGE gel (Expected Mw: 15.2 KDa). The protein was collected and diluted in 20 mM Tris-HCl pH 8.0, 25 mM MgCl2 buffer in order to reach a NaCl concentration of 150 mM. The purified FGF2 was concentrated and stored at −80° C.
as §2

Chain of FGFR1 (P11362 142-365 limits assumed): as the sequence (P11362 142-365 partner limits assumed) above
Chain of FGFR1 (P09038 156-288 partner limits assumed): as the sequence (P09038 156-288 limits assumed) above

Compound: Fc1cccc2c1CCN(C1CCN(C(c3ccccc3)c3ccccc3)CC1)C2 [Compound 7, 2-(1-benzhydrylpiperidin-4-yl)-5-fluoro-1,2,3,4-tetrahydroisoquinoline]
- ΔTm at 10 µM (FGFR1): 10.7 °C
- ΔTm at 10 µM (FGF2): -0.2 °C

Compound: Brc1ccc2c(c1)CCN(C1CCN(C(c3ccccc3)c3ccccc3)CC1)C2 [Compound 1, 2-(1-benzhydrylpiperidin-4-yl)-6-bromo-1,2,3,4-tetrahydroisoquinoline]
- ΔTm at 10 µM (FGFR1): 2 °C
- ΔTm at 100 µM (FGFR1): 3 °C
- ΔTm at 10 µM (FGF2): -1.5 °C
- ΔTm at 100 µM (FGF2): -1.8 °C

Compound: Fc1ccc2c(c1)CN(C1CCN(C(c3ccccc3)c3ccccc3)CC1)CC2 [Compound 8, 2-(1-benzhydrylpiperidin-4-yl)-7-fluoro-1,2,3,4-tetrahydroisoquinoline]
- ΔTm at 10 µM (FGFR1): 3.3 °C
- ΔTm at 10 µM (FGF2): -0.5 °C

Compound: Fc1cccc2c1CN(C1CCN(C(c3ccccc3)c3ccccc3)CC1)CC2 [Compound 9, 2-(1-benzhydrylpiperidin-4-yl)-8-fluoro-1,2,3,4-tetrahydroisoquinoline]
- ΔTm at 100 µM (FGFR1): 0 °C
- ΔTm at 100 µM (FGF2): 0 °C

Compound: Clc1ccc2c(c1)CCN(C1CCN(C(c3ccccc3)c3ccccc3)CC1)C2 [Compound 5, 2-(1-benzhydrylpiperidin-4-yl)-6-chloro-1,2,3,4-tetrahydroisoquinoline]
- ΔTm at 25 µM (FGFR1): 1.2 °C
- ΔTm at 25 µM (FGF2): -1.7 °C

Compound: c1ccc(C(c2ccccc2)N2CCC(N3CCc4cccnc4C3)CC2)cc1 [Compound 14, 7-(1-benzhydrylpiperidin-4-yl)-5,6,7,8-tetrahydro-1,7-naphthyridine]
- ΔTm at 25 µM (FGFR1): 5.4 °C
- ΔTm at 25 µM (FGF2): -3.3 °C

Compound: c1ccc(C(c2ccccc2)N2CCC(N3CCc4ccncc4C3)CC2)cc1 [Compound 4, 2-(1-benzhydrylpiperidin-4-yl)-1,2,3,4-tetrahydro-2,7-naphthyridine]
- ΔTm at 2 µM (FGFR1): 14.5 °C
- ΔTm at 2 µM (FGF2): -2.2 °C

Compound: c1ccc(C(c2ccccc2)N2CCC(N3CCc4cnccc4C3)CC2)cc1 [Compound 19, 2-(1-benzhydrylpiperidin-4-yl)-1,2,3,4-tetrahydro-2,6-naphthyridine]
- ΔTm at 25 µM (FGFR1): 2.8 °C
- ΔTm at 25 µM (FGF2): -3 °C

Compound: c1ccc(C(c2ccccc2)N2CCC(N3CCc4ncccc4C3)CC2)cc1 [Compound 17, 6-(1-benzhydrylpiperidin-4-yl)-5,6,7,8-tetrahydro-1,6-naphthyridine]
- ΔTm at 10 µM (FGFR1): 3 °C
- ΔTm at 10 µM (FGF2): -2.7 °C

Compound: N#Cc1ccc2c(c1)CCN(C1CCN(C(c3ccccc3)c3ccccc3)CC1)C2 [Compound 3, 2-(1-benzhydrylpiperidin-4-yl)-1,2,3,4-tetrahydroisoquinoline-6-carbonitrile]
- ΔTm at 25 µM (FGFR1): 0 °C
- ΔTm at 25 µM (FGF2): 3.7 °C

Compound: Fc1ccc2c(c1)CCN(C1CCN(C(c3ccccc3)c3ccccc3)CC1)C2 [Compound 6, 2-(1-benzhydrylpiperidin-4-yl)-6-fluoro-1,2,3,4-tetrahydroisoquinoline]
- ΔTm at 25 µM (FGFR1): 1.5 °C
- ΔTm at 25 µM (FGF2): 0 °C

Continued, values first:

- ΔTm at 100 µM (FGFR1): -0.5 °C
- ΔTm at 100 µM (FGF2): 0 °C
Compound: CCN(CC)c1ccc2c(c1)CCN(C1CN(C(c3ccccc3)c3ccccc3)C1)C2 [Compound 56, 2-(1-benzhydrylazetidin-3-yl)-N,N-diethyl-1,2,3,4-tetrahydroisoquinolin-6-amine]

- ΔTm at 2 µM (FGFR1): 9.8 °C
- ΔTm at 2 µM (FGF2): -2.7 °C
Compound: Fc1cccc2c1CCN(C1CN(C(c3ccccc3)c3ccccc3)C1)C2 [Compound 38, 2-(1-benzhydrylazetidin-3-yl)-5-fluoro-1,2,3,4-tetrahydroisoquinoline]

- ΔTm at 2 µM (FGFR1): 11.6 °C
- ΔTm at 2 µM (FGF2): -3.6 °C
Compound: FC1(F)CN(C2CCN(C(c3ccccc3)c3ccccc3)CC2)Cc2ccccc21 [Compound 21, 2-(1-benzhydrylpiperidin-4-yl)-4,4-difluoro-1,2,3,4-tetrahydroisoquinoline]

- ΔTm at 100 µM (FGFR1): 6.6 °C
- ΔTm at 100 µM (FGF2): -4.5 °C
Compound: Brc1ccc2c(c1)CCN(C1CN(C(c3ccccc3)c3ccccc3)C1)C2 [Compound 43, 2-(1-benzhydrylazetidin-3-yl)-6-bromo-1,2,3,4-tetrahydroisoquinoline]

- ΔTm at 100 µM (FGFR1): 0.3 °C
- ΔTm at 100 µM (FGF2): 0 °C
Compound: Fc1ccc(CN2CCC(N3CCc4cc(Br)ccc4C3)CC2)cc1 [Compound 81, 6-bromo-2-(1-(4-fluorobenzyl)piperidin-4-yl)-1,2,3,4-tetrahydroisoquinoline]

- ΔTm at 2 µM (FGFR1): 14 °C
- ΔTm at 2 µM (FGF2): 0 °C
Compound: CCN(CC)c1ccc2c(c1)CCN(C1CCN(Cc3ccc(F)cc3)CC1)C2 [Compound 85, N,N-diethyl-2-(1-(4-fluorobenzyl)piperidin-4-yl)-1,2,3,4-tetrahydroisoquinolin-6-amine]

Reference: US20240174631A1, “COMPOUNDS, COMPOSITIONS, AND METHODS FOR MODULATING FGF ACTIVITY” (Recovery Therapeutics, Inc., priority 2021, published 2024)
